Reference: patent US6737383B1, “Herbicidal oxadiazolidines” (priority 1999, dated 2004)

Experiments:
wheat = assay: Test B pre/postemergence wheat; format: in vivo, Triticum aestivum; conditions: for Plant response rating, Wheat: Rate 250 g/ha
Summary of the method: (§1)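 Test chemicals in a non-phytotoxic solvent mixture with surfactant were sprayed preemergence onto planted seeds and postemergence onto plants 2 to 18 cm tall (1- to 4-leaf stage). After twelve to sixteen days in a greenhouse, injury was visually rated against untreated controls from 0 (no effect) to 10 (complete control).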

cocklebur = assay: Test B pre/postemergence cocklebur; format: in vivo, Xanthium strumarium
Summary of the method: as §1

giant foxtail = assay: Test B pre/postemergence giant foxtail; format: in vivo, Setaria faberii
Summary of the method: as §1

pigweed = assay: Test B pre/postemergence pigweed; format: in vivo, Amaranthus retroflexus
Summary of the method: as §1

morningglory = assay: Test B pre/postemergence morningglory; format: in vivo, Ipomoea hederacea
Summary of the method: as §1

crabgrass = assay: Test B pre/postemergence crabgrass; format: in vivo, Digitaria sanguinalis
Summary of the method: as §1

wild oat = assay: Test B pre/postemergence wild oat; format: in vivo, Avena fatua; conditions: for Plant response rating, Wild oats: Rate 250 g/ha
Summary of the method: as §1

purple nutsedge = assay: Test B pre/postemergence purple nutsedge; format: in vivo, Cyperus rotundus
Summary of the method: as §1

bedstraw = assay: Test B pre/postemergence bedstraw; format: in vivo, Galium aparine
Summary of the method: as §1

corn = assay: Test B pre/postemergence corn; format: in vivo, Zea mays
Summary of the method: as §1

rape = assay: Test B pre/postemergence rape; format: in vivo, Brassica napus
Summary of the method: as §1

surinam grass = assay: Test B pre/postemergence surinam grass; format: in vivo, Brachiaria decumbens
Summary of the method: as §1

velvetleaf = assay: Test B pre/postemergence velvetleaf; format: in vivo, Abutilon theophrasti; conditions: for Plant response rating, Velvetleaf: Rate 250 g/ha
Summary of the method: as §1

soybean = assay: Test B pre/postemergence soybean; format: in vivo, Glycine max
Summary of the method: as §1

blackgrass = assay: Test B pre/postemergence blackgrass; format: in vivo, Alopecurus myosuroides
Summary of the method: as §1

[1] = Postemergence, Rate 125 g/ha, scale of 0 to 10 where 0 is no effect and 10 is complete control
[2] = Preemergence, Rate 62 g/ha, scale 0 to 10 (0 no effect, 10 complete control)
[3] = Preemergence, Rate 125 g/ha, 0 is no effect, 10 is complete control
[4] = Preemergence, scale of 0 to 10 where 0 is no effect and 10 is complete control
[5] = Preemergence, Rate 500 g/ha, scale 0 to 10 (0 no effect, 10 complete control)
[6] = Rate 62 g/ha, Postemergence, scale of 0 to 10 where 0 is no effect and 10 is complete control
[7] = Postemergence, scale 0 to 10, 0 is no effect, 10 is complete control
[8] = Rate 500 g/ha, Postemergence, scale 0 to 10, 0 no effect, 10 complete control
[9] = Postemergence, Rate 250 g/ha, scale 0 to 10, 0 no effect, 10 complete control
[10] = Preemergence, Rate 125 g/ha, scale 0 to 10 (0 no effect, 10 complete control)
[11] = Preemergence, Rate 250 g/ha, scale of 0 to 10 where 0 is no effect and 10 is complete control
[12] = Rate 250 g/ha, Postemergence, scale 0 to 10, 0 is no effect, 10 is complete control
[13] = Postemergence, Rate 62 g/ha, scale 0 to 10, 0 is no effect, 10 is complete control
[14] = Rate 125 g/ha, Postemergence, scale 0 to 10, 0 no effect, 10 complete control

CC(C)N(C(=O)n1oc(=O)n(C(C)C)c1=O)c1ccc(Cl)cc1 [Compound 114]
2: Plant response rating, Wheat (wheat; [4]) | Redroot pigweed plant response rating (pigweed; [1]) | Crabgrass plant response rating (crabgrass; [2]) | Crabgrass plant response rating (crabgrass; [6]) | Plant response rating, Wild oats (wild oat; [7]) | Wild oats plant response rating (wild oat; [8]) | Blackgrass plant response rating (blackgrass; [1])
5: Giant foxtail plant response rating (giant foxtail; [2]) | Giant foxtail plant response rating (giant foxtail; [6]) | Redroot pigweed plant response rating (pigweed; [2]) | Wild oats plant response rating (wild oat; [2]) | B. signalgrass plant response rating (surinam grass; [9]) | Plant response rating, Velvetleaf (velvetleaf; [4]) | Plant response rating, Soybean (soybean; [12])
7: Plant response rating, Crabgrass (crabgrass; [10]) | Wild oats plant response rating (0 to 10 scale) (wild oat; [3]) | Bedstraw plant response rating (bedstraw; [8]) | Plant response rating, Corn (corn; [11]) | Rape plant response rating (rape; [8]) | Plant response rating, B. signalgrass (surinam grass; [11]) | B. signalgrass plant response rating (surinam grass; Rate 500 g/ha, Postemergence, scale of 0 to 10 where 0 is no effect and 10 is complete control) | Soybean plant response rating (soybean; [8]) | Blackgrass plant response rating (blackgrass; [9])
1: Morningglory plant response rating (morningglory; [5]) | Morningglory plant response rating (morningglory; [6]) | Velvetleaf plant response rating (velvetleaf; [1])
10: Plant response rating, Giant foxtail (giant foxtail; [11]) | Giant foxtail plant response rating (giant foxtail; [5]) | Plant response rating, Redroot pigweed (pigweed; [11]) | Redroot pigweed plant response rating (pigweed; [5]) | Wild oats plant response rating (wild oat; [5]) | Rape plant response rating (rape; [5]) | B. signalgrass plant response rating (surinam grass; [5]) | Plant response rating, Blackgrass (blackgrass; [11]) | Blackgrass plant response rating (blackgrass; [5])
6: Bedstraw plant response rating (bedstraw; [9]) | Bedstraw plant response rating (bedstraw; [14]) | Plant response rating, Rape (rape; [11]) | Velvetleaf plant response rating (velvetleaf; [5]) | Blackgrass plant response rating (blackgrass; [2])
8: Wheat plant response rating (wheat; [5]) | Plant response rating, Redroot pigweed (pigweed; [10]) | Morningglory plant response rating (morningglory; [8]) | Crabgrass plant response rating (crabgrass; [1]) | Plant response rating, Blackgrass (blackgrass; [10]) | Blackgrass plant response rating (blackgrass; [8])
0: Wheat plant response rating (wheat; [1]) | Wheat plant response rating (wheat; [2]) | Wheat plant response rating (0 to 10 scale) (wheat; [3]) | Wheat plant response rating (wheat; [6]) | Plant response rating, Wheat (wheat; [7]) | Wheat plant response rating (wheat; [8]) | Cocklebur plant response rating (cocklebur; [1]) | Cocklebur plant response rating (cocklebur; [9]) | Cocklebur plant response rating (cocklebur; [2]) | Plant response rating, Cocklebur (cocklebur; [10]) | Plant response rating, Cocklebur (cocklebur; [11]) | Cocklebur plant response rating (cocklebur; [6]) | Cocklebur plant response rating (cocklebur; [8]) | Redroot pigweed plant response rating (pigweed; [6]) | Morningglory plant response rating (morningglory; [2]) | Plant response rating, Morningglory (morningglory; [10]) | Plant response rating, Morningglory (morningglory; [11]) | Wild oats plant response rating (wild oat; [1]) | Wild oats plant response rating (wild oat; [6]) | Nutsedge plant response rating (purple nutsedge; [1]) | Nutsedge plant response rating (purple nutsedge; [9]) | Nutsedge plant response rating (purple nutsedge; [2]) | Plant response rating, Nutsedge (purple nutsedge; [10]) | Plant response rating, Nutsedge (purple nutsedge; [11]) | Nutsedge plant response rating (purple nutsedge; [5]) | Nutsedge plant response rating (purple nutsedge; [6]) | Nutsedge plant response rating (purple nutsedge; [8]) | Bedstraw plant response rating (bedstraw; [2]) | Plant response rating, Bedstraw (bedstraw; [10]) | Plant response rating, Bedstraw (bedstraw; [11]) | Bedstraw plant response rating (bedstraw; [5]) | Corn plant response rating (corn; [1]) | Corn plant response rating (corn; [9]) | Corn plant response rating (corn; [2]) | Plant response rating, Corn (corn; [10]) | Corn plant response rating (corn; [6]) | Corn plant response rating (corn; [8]) | Rape plant response rating (rape; [2]) | B. signalgrass plant response rating (surinam grass; [13]) | B. signalgrass plant response rating (surinam grass; [2]) | Plant response rating, B. signalgrass (surinam grass; [10]) | B. signalgrass plant response rating (surinam grass; [14]) | Velvetleaf plant response rating (velvetleaf; [6]) | Soybean plant response rating (soybean; [2]) | Plant response rating, Soybean (soybean; [10]) | Plant response rating, Soybean (soybean; [11]) | Blackgrass plant response rating (blackgrass; [6])
4: Morningglory plant response rating (morningglory; [1]) | Morningglory plant response rating (morningglory; [9]) | Velvetleaf plant response rating (velvetleaf; [2]) | Velvetleaf plant response rating (0 to 10 scale) (velvetleaf; [3])
9: Giant foxtail plant response rating (giant foxtail; [1]) | Giant foxtail plant response rating (giant foxtail; [9]) | Plant response rating, Giant foxtail (giant foxtail; [10]) | Giant foxtail plant response rating (giant foxtail; [8]) | Crabgrass plant response rating (crabgrass; [9]) | Plant response rating, Crabgrass (crabgrass; [11]) | Crabgrass plant response rating (crabgrass; [5]) | Crabgrass plant response rating (crabgrass; [8]) | Plant response rating, Wild oats (wild oat; [4]) | Corn plant response rating (corn; [5])
3: Plant response rating, Redroot pigweed (pigweed; [12]) | Redroot pigweed plant response rating (pigweed; [8]) | Bedstraw plant response rating (bedstraw; [13]) | Rape plant response rating (rape; [1]) | Rape plant response rating (rape; [9]) | Plant response rating, Rape (rape; [10]) | Rape plant response rating (rape; [6]) | Plant response rating, Velvetleaf (velvetleaf; [7]) | Velvetleaf plant response rating (velvetleaf; [8]) | Soybean plant response rating (soybean; [1]) | Soybean plant response rating (soybean; [5]) | Soybean plant response rating (soybean; [6])
